Results from PubChem BioAssay AID1963962 (Molecular Pharmacology Branch, DTP, NCI, 2024).

Tested on: 967376-340-R-J2-PDC multicell spheroid viability
Test: Anticancer human tumor 967376-340-R-J2-PDC patient-derived colon adenocarcinoma cell line growth inhibition [PI3K]
Settings: for IC50: curve of first compound; for viability, T/C: stronger effect = lower value
Method in brief: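 Viability of mixed-cell spheroids was determined after exposure to pairwise combinations, one partner being inavolisib, alpelisib, duvelisib or copanlisib. Highest tested concentration matched clinical Cmax where known and 10 microM where not, descending in half-log steps.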

[1] = second compound 0.0316 µM, first compound 0.000316 µM
[2] = second compound 0.0316 µM, first compound 0.001 µM
[3] = second compound 0.0316 µM, first compound 0.00316 µM
[4] = second compound 0.0316 µM, first compound 0.01 µM
[5] = second compound 0.0316 µM, first compound 0.0316 µM
[6] = second compound 0.0316 µM, first compound 0.1 µM
[7] = second compound 0.1 µM, first compound 0.000316 µM
[8] = second compound 0.1 µM, first compound 0.001 µM
[9] = second compound 0.1 µM, first compound 0.00316 µM
[10] = second compound 0.1 µM, first compound 0.01 µM
[11] = second compound 0.1 µM, first compound 0.0316 µM
[12] = second compound 0.1 µM, first compound 0.1 µM
[13] = second compound 0.316 µM, first compound 0.000316 µM
[14] = second compound 0.316 µM, first compound 0.001 µM
[15] = second compound 0.316 µM, first compound 0.00316 µM
[16] = second compound 0.316 µM, first compound 0.01 µM
[17] = second compound 0.316 µM, first compound 0.0316 µM
[18] = second compound 0.316 µM, first compound 0.1 µM
[19] = second compound 1 µM, first compound 0.000316 µM
[20] = second compound 1 µM, first compound 0.001 µM
[21] = second compound 1 µM, first compound 0.00316 µM
[22] = second compound 1 µM, first compound 0.01 µM
[23] = second compound 1 µM, first compound 0.0316 µM
[24] = second compound 1 µM, first compound 0.1 µM
[25] = second compound 3.16 µM, first compound 0.000316 µM
[26] = second compound 3.16 µM, first compound 0.001 µM
[27] = second compound 3.16 µM, first compound 0.00316 µM
[28] = second compound 3.16 µM, first compound 0.01 µM
[29] = second compound 3.16 µM, first compound 0.0316 µM
[30] = second compound 3.16 µM, first compound 0.1 µM
[31] = second compound 10 µM, first compound 0.000316 µM
[32] = second compound 10 µM, first compound 0.001 µM
[33] = second compound 10 µM, first compound 0.00316 µM
[34] = second compound 10 µM, first compound 0.01 µM
[35] = second compound 10 µM, first compound 0.0316 µM
[36] = second compound 10 µM, first compound 0.1 µM
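Note: spheroids exposed to agents for 7 days before read-out.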
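Throughout, for viability, T/C: luminescence used as surrogate of cell viability.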

SMILES: CC(=O)c1c(C)c2cnc(Nc3ccc(N4CCNCC4)cn3)nc2n(C2CCCC2)c1=O + Cc1nc(NC(=O)N2CCCC2C(N)=O)sc1-c1ccnc(C(C)(C)C(F)(F)F)c1
- IC50 (second compound 0.0316 µM): > 100 nM
- IC50 (second compound 0.1 µM): > 100 nM
- IC50 (second compound 0.316 µM): > 100 nM
- IC50 (second compound 1 µM): > 100 nM
- IC50 (second compound 3.16 µM): > 100 nM
- IC50 (second compound 10 µM): 24.5 nM
- viability, T/C [1]: 98.9%
- viability, T/C [2]: 84.7%
- viability, T/C [3]: 101%
- viability, T/C [4]: 90.7%
- viability, T/C [5]: 102%
- viability, T/C [6]: 77.3%
- viability, T/C [7]: 105%
- viability, T/C [8]: 94.3%
- viability, T/C [9]: 88.3%
- viability, T/C [10]: 99.4%
- viability, T/C [11]: 109%
- viability, T/C [12]: 75.6%
- viability, T/C [13]: 89%
- viability, T/C [14]: 82.1%
- viability, T/C [15]: 75%
- viability, T/C [16]: 82.6%
- viability, T/C [17]: 84.2%
- viability, T/C [18]: 101%
- viability, T/C [19]: 65%
- viability, T/C [20]: 74.4%
- viability, T/C [21]: 88.7%
- viability, T/C [22]: 79.1%
- viability, T/C [23]: 75.5%
- viability, T/C [24]: 76.3%
- viability, T/C [25]: 59.4%
- viability, T/C [26]: 68.2%
- viability, T/C [27]: 74.5%
- viability, T/C [28]: 57.8%
- viability, T/C [29]: 63.8%
- viability, T/C [30]: 60.4%
- viability, T/C [31]: 62.2%
- viability, T/C [32]: 50.8%
- viability, T/C [33]: 57.2%
- viability, T/C [34]: 55.9%
- viability, T/C [35]: 46.3%
- viability, T/C [36]: 47.1%

SMILES: CC(C)n1nc(-c2ccc3oc(N)nc3c2)c2c(N)ncnc21 + Cc1nc(NC(=O)N2CCCC2C(N)=O)sc1-c1ccnc(C(C)(C)C(F)(F)F)c1
- IC50 (second compound 0.0316 µM): > 100 nM
- IC50 (second compound 0.1 µM): 91.3 nM
- IC50 (second compound 0.316 µM): 70.5 nM
- IC50 (second compound 1 µM): 55.1 nM
- IC50 (second compound 3.16 µM): 22 nM
- IC50 (second compound 10 µM): 5.87 nM
- viability, T/C [1]: 90.8%
- viability, T/C [2]: 108%
- viability, T/C [3]: 96.5%
- viability, T/C [4]: 109%
- viability, T/C [5]: 70.5%
- viability, T/C [6]: 53.4%
- viability, T/C [7]: 84.1%
- viability, T/C [8]: 69.3%
- viability, T/C [9]: 88.7%
- viability, T/C [10]: 73%
- viability, T/C [11]: 70.8%
- viability, T/C [12]: 48.2%
- viability, T/C [13]: 67.5%
- viability, T/C [14]: 79.3%
- viability, T/C [15]: 80.4%
- viability, T/C [16]: 72.3%
- viability, T/C [17]: 58.7%
- viability, T/C [18]: 46.2%
- viability, T/C [19]: 65.4%
- viability, T/C [20]: 64.5%
- viability, T/C [21]: 59.3%
- viability, T/C [22]: 59.7%
- viability, T/C [23]: 66%
- viability, T/C [24]: 36.2%
- viability, T/C [25]: 54.6%
- viability, T/C [26]: 58.2%
- viability, T/C [27]: 62.3%
- viability, T/C [28]: 53.7%
- viability, T/C [29]: 46.7%
- viability, T/C [30]: 32.2%
- viability, T/C [31]: 47.8%
- viability, T/C [32]: 54.2%
- viability, T/C [33]: 51.6%
- viability, T/C [34]: 48.9%
- viability, T/C [35]: 41.3%
- viability, T/C [36]: 34.5%

SMILES: CCCS(=O)(=O)Nc1ccc(F)c(C(=O)c2c[nH]c3ncc(-c4ccc(Cl)cc4)cc23)c1F + Cc1nc(NC(=O)N2CCCC2C(N)=O)sc1-c1ccnc(C(C)(C)C(F)(F)F)c1
- IC50 (second compound 0.0316 µM): 6970 nM
- IC50 (second compound 0.1 µM): > 10000 nM
- IC50 (second compound 0.316 µM): 8250 nM
- IC50 (second compound 1 µM): 6020 nM
- IC50 (second compound 3.16 µM): > 10000 nM
- IC50 (second compound 10 µM): 4470 nM
- viability, T/C [5]: 80.2%
- viability, T/C [6]: 82%
- viability, T/C (second compound 0.0316 µM, first compound 0.316 µM): 101%
- viability, T/C (second compound 0.0316 µM, first compound 1 µM): 102%
- viability, T/C (second compound 0.0316 µM, first compound 3.16 µM): 105%
- viability, T/C (second compound 0.0316 µM, first compound 10 µM): 29.8%
- viability, T/C [11]: 95.7%
- viability, T/C [12]: 72%
- viability, T/C (second compound 0.1 µM, first compound 0.316 µM): 77.2%
- viability, T/C (second compound 0.1 µM, first compound 1 µM): 80%
- viability, T/C (second compound 0.1 µM, first compound 3.16 µM): 117%
- viability, T/C (second compound 0.1 µM, first compound 10 µM): 60.3%
- viability, T/C [17]: 63%
- viability, T/C [18]: 81.2%
- viability, T/C (second compound 0.316 µM, first compound 0.316 µM): 68.7%
- viability, T/C (second compound 0.316 µM, first compound 1 µM): 91.7%
- viability, T/C (second compound 0.316 µM, first compound 3.16 µM): 88.4%
- viability, T/C (second compound 0.316 µM, first compound 10 µM): 44.3%
- viability, T/C [23]: 78.2%
- viability, T/C [24]: 69.1%
- viability, T/C (second compound 1 µM, first compound 0.316 µM): 74%
- viability, T/C (second compound 1 µM, first compound 1 µM): 74.8%
- viability, T/C (second compound 1 µM, first compound 3.16 µM): 66.3%
- viability, T/C (second compound 1 µM, first compound 10 µM): 36.6%
- viability, T/C [29]: 50.5%
- viability, T/C [30]: 56.5%
- viability, T/C (second compound 3.16 µM, first compound 0.316 µM): 60.3%
- viability, T/C (second compound 3.16 µM, first compound 1 µM): 65.6%
- viability, T/C (second compound 3.16 µM, first compound 3.16 µM): 71.4%
- viability, T/C (second compound 3.16 µM, first compound 10 µM): 61.4%
- viability, T/C [35]: 59.7%
- viability, T/C [36]: 46.9%
- viability, T/C (second compound 10 µM, first compound 0.316 µM): 69.2%
- viability, T/C (second compound 10 µM, first compound 1 µM): 49.6%
- viability, T/C (second compound 10 µM, first compound 3.16 µM): 65.1%
- viability, T/C (second compound 10 µM, first compound 10 µM): 31.1%
